In patent US20220275341A1, “ORGANOID MESODERM LINEAGE DIVERSIFICATION” (CHILDREN'S HOSPITAL MEDICAL CENTER, priority 2019, published 2022):

System: hPSC-derived primitive splanchnic mesoderm (SM)
Assay: Treatment of hPSC-derived primitive SM from d4-d7 with HH, RA, Wnt and BMP agonists or antagonists; RT-PCR, immunostaining, RNA-scope
Type: cell-based, human
Description: For RNAscope on mouse tissue, fixed embryos were immersed in 30% sucrose/PBS overnight, embedded in OCT, cryosectioned (12 μm) onto Superfrost Plus slides (Thermo Fisher) and stored at −80° C. overnight. For RNAscope of adherent hPSC culture, cells were differentiated on Geltrex-coated u-Slide 8 well (ibid) and fixed in 4% PFA at room temperature for 30 min, Cells were dehydrated with ethanol gradient and stored in 100% ethanol at −20° C. RNAscope fluorescent in situ hybridization was conducted with RNAscope Multiplex Fluorescent Detection Reagents V2 (Advanced Cell Diagnostics, Inc.) and Opal fluorophore (Akoya Biosciences) according to manufacturer's instructions.
Differentiation of hPSCs into lateral plate mesoderm was induced using previously described methods with modifications. In brief, partially confluent hPSCs were dissociated into very fine clumps in Accutase (Invitrogen) and passaged 1:18 onto new Geltrex-coated 24-well plates for immunocytochemistry and 12-well plates for RNA preparation in mTeSR1 with 1 μM thiazovivin (Tocris) (Day 1). […]
Total RNA was prepared from differentiating human ES cells by using Nucleospin kit according to manufacturer's protocol. […] Significance was determined by one-way ANOVA, followed by Tukey's test. […]

c1ccc2c(Oc3nc(Nc4ccc(N5CCOCC5)cc4)c4ncn(C5CCCCC5)c4n3)cccc2c1 [HH-agonist, purmorphamine]
gut tube identity: promoted
hepatic fate: efficiently blocked
